Experimental data from ChEMBL document CHEMBL1201861, “Genomics of Drug Sensitity in Cancer screening data, Wellcome Trust Sanger Institute”.

Test system: COLO-792
Assay: cells
Format: functional, cell-based
Details: Homo sapiens
Description: SANGER: Inhibition of human COLO-792 cell growth in a cell viability assay.

| Compound | IC50 |
| --- | --- |
| NC(=O)Nc1cc(-c2cccc(F)c2)sc1C(=O)N[C@H]1CCCNC1 [AZD-7762] | > 2 µM |

Test system: COR-L105;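 further: cell growth inhibition determined with a viability assay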
Assay: cells
Format: functional, cell-based
Details: Homo sapiens
Description: SANGER: Inhibition of human COR-L105 cell growth in a cell viability assay.

| Compound | IC50 |
| --- | --- |
| NC(=O)Nc1cc(-c2cccc(F)c2)sc1C(=O)N[C@H]1CCCNC1 [AZD-7762] | 0.222 µM |

Test system: CP50-MEL-B;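 further: growth inhibition of the human cell line, measured with a cell viability read-out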
Assay: cells
Format: functional, cell-based
Details: Homo sapiens
Description: SANGER: Inhibition of human CP50-MEL-B cell growth in a cell viability assay.

| Compound | IC50 |
| --- | --- |
| NC(=O)Nc1cc(-c2cccc(F)c2)sc1C(=O)N[C@H]1CCCNC1 [AZD-7762] | > 2 µM |

Test system: CP66-MEL;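 further: growth inhibition of CP66-MEL cells determined in a cell viability assay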
Assay: cells
Format: functional, cell-based
Details: Homo sapiens
Description: SANGER: Inhibition of human CP66-MEL cell growth in a cell viability assay.

| Compound | IC50 |
| --- | --- |
| NC(=O)Nc1cc(-c2cccc(F)c2)sc1C(=O)N[C@H]1CCCNC1 [AZD-7762] | > 2 µM |

Test system: D-336MG
Assay: cells
Format: functional, cell-based, Homo sapiens
Details: Homo sapiens, D-336MG
Description: SANGER: Inhibition of human D-336MG cell growth in a cell viability assay.

| Compound | IC50 |
| --- | --- |
| NC(=O)Nc1cc(-c2cccc(F)c2)sc1C(=O)N[C@H]1CCCNC1 [AZD-7762] | 0.421 µM |

Test system: DBTRG-05MG;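 further: cell viability assay measuring growth inhibition of human DBTRG-05MG cells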
Assay: cells
Format: functional, cell-based
Details: Homo sapiens
Description: SANGER: Inhibition of human DBTRG-05MG cell growth in a cell viability assay.

| Compound | IC50 |
| --- | --- |
| NC(=O)Nc1cc(-c2cccc(F)c2)sc1C(=O)N[C@H]1CCCNC1 [AZD-7762] | > 2 µM |

Test system: ESS-1;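 further: growth inhibition of human ESS-1 cells, read out by a cell viability assay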
Assay: cells
Format: functional, cell-based
Details: Homo sapiens
Description: SANGER: Inhibition of human ESS-1 cell growth in a cell viability assay.

| Compound | IC50 |
| --- | --- |
| NC(=O)Nc1cc(-c2cccc(F)c2)sc1C(=O)N[C@H]1CCCNC1 [AZD-7762] | 0.164 µM |

Test system: G-361
Assay: cells
Format: functional, cell-based
Details: Homo sapiens

| Compound | IC50 |
| --- | --- |
| NC(=O)Nc1cc(-c2cccc(F)c2)sc1C(=O)N[C@H]1CCCNC1 [AZD-7762] | 0.387 µM |

Test system: GMS-10;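 further: growth inhibition of GMS-10 cells, read out as cell viability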
Assay: cells
Format: functional, cell-based
Details: Homo sapiens
Description: SANGER: Inhibition of human GMS-10 cell growth in a cell viability assay.

| Compound | IC50 |
| --- | --- |
| NC(=O)Nc1cc(-c2cccc(F)c2)sc1C(=O)N[C@H]1CCCNC1 [AZD-7762] | 1.35 µM |

Test system: HCC1419;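 further: growth inhibition of human HCC1419 cells, read out as cell viability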
Assay: cells
Format: functional, cell-based
Details: Homo sapiens
Description: SANGER: Inhibition of human HCC1419 cell growth in a cell viability assay.

| Compound | IC50 |
| --- | --- |
| NC(=O)Nc1cc(-c2cccc(F)c2)sc1C(=O)N[C@H]1CCCNC1 [AZD-7762] | > 2 µM |

Test system: HSC-4;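 further: growth inhibition of human HSC-4 cells, read out with a cell viability assay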
Assay: cells
Format: functional, cell-based
Details: Homo sapiens
Description: SANGER: Inhibition of human HSC-4 cell growth in a cell viability assay.

| Compound | IC50 |
| --- | --- |
| NC(=O)Nc1cc(-c2cccc(F)c2)sc1C(=O)N[C@H]1CCCNC1 [AZD-7762] | 0.106 µM |

Test system: HT-1080
Assay: cells
Format: functional, cell-based
Details: Homo sapiens
Description: SANGER: Inhibition of human HT-1080 cell growth in a cell viability assay.

| Compound | IC50 |
| --- | --- |
| NC(=O)Nc1cc(-c2cccc(F)c2)sc1C(=O)N[C@H]1CCCNC1 [AZD-7762] | 0.493 µM |

Test system: Hs-578T
Assay: cells
Format: functional, cell-based
Details: Homo sapiens
Description: SANGER: Inhibition of human Hs-578-T cell growth in a cell viability assay.

| Compound | IC50 |
| --- | --- |
| NC(=O)Nc1cc(-c2cccc(F)c2)sc1C(=O)N[C@H]1CCCNC1 [AZD-7762] | 0.453 µM |

Test system: HuO9;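 further: growth inhibition of HuO9 cells, read out with a cell viability assay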
Assay: cells
Format: functional, cell-based
Details: Homo sapiens
Description: SANGER: Inhibition of human HuO9 cell growth in a cell viability assay.

| Compound | IC50 |
| --- | --- |
| NC(=O)Nc1cc(-c2cccc(F)c2)sc1C(=O)N[C@H]1CCCNC1 [AZD-7762] | 0.298 µM |

Test system: KOSC-2;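 further: growth inhibition of KOSC-2 cells, read out by a cell viability assay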
Assay: cells
Format: functional, cell-based
Details: Homo sapiens
Description: SANGER: Inhibition of human KOSC-2 cell growth in a cell viability assay.

| Compound | IC50 |
| --- | --- |
| NC(=O)Nc1cc(-c2cccc(F)c2)sc1C(=O)N[C@H]1CCCNC1 [AZD-7762] | 0.247 µM |

Test system: KYSE-180;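 further: growth inhibition of KYSE-180 cells, read out with a cell viability assay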
Assay: cells
Format: functional, cell-based
Details: Homo sapiens
Description: SANGER: Inhibition of human KYSE-180 cell growth in a cell viability assay.

| Compound | IC50 |
| --- | --- |
| NC(=O)Nc1cc(-c2cccc(F)c2)sc1C(=O)N[C@H]1CCCNC1 [AZD-7762] | 0.402 µM |

Test system: KYSE-410;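 further: growth inhibition of KYSE-410 cells, measured through a cell viability readout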
Assay: cells
Format: functional, cell-based
Details: Homo sapiens
Description: SANGER: Inhibition of human KYSE-410 cell growth in a cell viability assay.

| Compound | IC50 |
| --- | --- |
| NC(=O)Nc1cc(-c2cccc(F)c2)sc1C(=O)N[C@H]1CCCNC1 [AZD-7762] | 1.04 µM |

Test system: KYSE-450;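 further: cell growth inhibition measured by a viability assay in human KYSE-450 cells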
Assay: cells
Format: functional, cell-based
Details: Homo sapiens
Description: SANGER: Inhibition of human KYSE-450 cell growth in a cell viability assay.

| Compound | IC50 |
| --- | --- |
| NC(=O)Nc1cc(-c2cccc(F)c2)sc1C(=O)N[C@H]1CCCNC1 [AZD-7762] | 1.05 µM |

Test system: MDA-MB-175-VII
Assay: cells
Format: functional, cell-based
Details: Homo sapiens

| Compound | IC50 |
| --- | --- |
| NC(=O)Nc1cc(-c2cccc(F)c2)sc1C(=O)N[C@H]1CCCNC1 [AZD-7762] | > 2 µM |

Test system: MDA-MB-361
Assay: cells
Format: functional, cell-based
Details: Homo sapiens

| Compound | IC50 |
| --- | --- |
| NC(=O)Nc1cc(-c2cccc(F)c2)sc1C(=O)N[C@H]1CCCNC1 [AZD-7762] | 0.299 µM |

Test system: MDA-MB-415
Assay: cells
Format: functional, cell-based
Details: Homo sapiens

| Compound | IC50 |
| --- | --- |
| NC(=O)Nc1cc(-c2cccc(F)c2)sc1C(=O)N[C@H]1CCCNC1 [AZD-7762] | > 2 µM |

Test system: NCI-H1563;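 further: growth inhibition of human NCI-H1563 cells, read out with a cell viability assay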
Assay: cells
Format: functional, cell-based
Details: Homo sapiens
Description: SANGER: Inhibition of human NCI-H1563 cell growth in a cell viability assay.

| Compound | IC50 |
| --- | --- |
| NC(=O)Nc1cc(-c2cccc(F)c2)sc1C(=O)N[C@H]1CCCNC1 [AZD-7762] | 0.47 µM |

Test system: NCI-H2009;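 further: cell viability assay measuring inhibition of NCI-H2009 cell growth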
Assay: cells
Format: functional, cell-based
Details: Homo sapiens
Description: SANGER: Inhibition of human NCI-H2009 cell growth in a cell viability assay.

| Compound | IC50 |
| --- | --- |
| NC(=O)Nc1cc(-c2cccc(F)c2)sc1C(=O)N[C@H]1CCCNC1 [AZD-7762] | > 2 µM |

Test system: NCI-H650;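 further: growth inhibition of NCI-H650 cells, read out by a viability assay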
Assay: cells
Format: functional, cell-based
Details: Homo sapiens
Description: SANGER: Inhibition of human NCI-H650 cell growth in a cell viability assay.

| Compound | IC50 |
| --- | --- |
| NC(=O)Nc1cc(-c2cccc(F)c2)sc1C(=O)N[C@H]1CCCNC1 [AZD-7762] | 1.42 µM |

Test system: NUGC-3;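 further: growth inhibition of human NUGC-3 cells, read out with a cell viability assay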
Assay: cells
Format: functional, cell-based
Details: Homo sapiens
Description: SANGER: Inhibition of human NUGC-3 cell growth in a cell viability assay.

| Compound | IC50 |
| --- | --- |
| NC(=O)Nc1cc(-c2cccc(F)c2)sc1C(=O)N[C@H]1CCCNC1 [AZD-7762] | > 2 µM |

Test system: OE19;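 further: growth inhibition of OE19 cells, measured through a cell viability read-out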
Assay: cells
Format: functional, cell-based
Details: Homo sapiens
Description: SANGER: Inhibition of human OE19 cell growth in a cell viability assay.

| Compound | IC50 |
| --- | --- |
| NC(=O)Nc1cc(-c2cccc(F)c2)sc1C(=O)N[C@H]1CCCNC1 [AZD-7762] | > 2 µM |

Test system: PANC-03-27
Assay: cells
Format: functional, cell-based
Details: Homo sapiens
Description: SANGER: Inhibition of human PANC-03-27 cell growth in a cell viability assay.

| Compound | IC50 |
| --- | --- |
| NC(=O)Nc1cc(-c2cccc(F)c2)sc1C(=O)N[C@H]1CCCNC1 [AZD-7762] | 0.143 µM |

Test system: RPMI-7951
Assay: cells
Format: functional, cell-based
Details: Homo sapiens
Description: SANGER: Inhibition of human RPMI-7951 cell growth in a cell viability assay.

| Compound | IC50 |
| --- | --- |
| NC(=O)Nc1cc(-c2cccc(F)c2)sc1C(=O)N[C@H]1CCCNC1 [AZD-7762] | 0.231 µM |

Test system: SAS;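 further: growth inhibition of SAS cells, read out with a cell viability assay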
Assay: cells
Format: functional, cell-based
Details: Homo sapiens
Description: SANGER: Inhibition of human SAS cell growth in a cell viability assay.

| Compound | IC50 |
| --- | --- |
| NC(=O)Nc1cc(-c2cccc(F)c2)sc1C(=O)N[C@H]1CCCNC1 [AZD-7762] | 1.27 µM |

Test system: SK-LU-1;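 further: cell viability assay measuring growth inhibition of human SK-LU-1 cells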
Assay: cells
Format: functional, cell-based
Details: Homo sapiens
Description: SANGER: Inhibition of human SK-LU-1 cell growth in a cell viability assay.

| Compound | IC50 |
| --- | --- |
| NC(=O)Nc1cc(-c2cccc(F)c2)sc1C(=O)N[C@H]1CCCNC1 [AZD-7762] | 0.0842 µM |

Test system: SKG-IIIa;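 further: cell growth inhibition, read out with a cell viability assay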
Assay: cells
Format: functional, cell-based
Details: Homo sapiens
Description: SANGER: Inhibition of human SKG-IIIa cell growth in a cell viability assay.

| Compound | IC50 |
| --- | --- |
| NC(=O)Nc1cc(-c2cccc(F)c2)sc1C(=O)N[C@H]1CCCNC1 [AZD-7762] | 0.65 µM |

Test system: SN12C;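 further: growth inhibition of human SN12C cells, measured by a cell viability assay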
Assay: cells
Format: functional, cell-based
Details: Homo sapiens
Description: SANGER: Inhibition of human SN12C cell growth in a cell viability assay.

| Compound | IC50 |
| --- | --- |
| NC(=O)Nc1cc(-c2cccc(F)c2)sc1C(=O)N[C@H]1CCCNC1 [AZD-7762] | 1.12 µM |

Test system: SW756;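 further: growth inhibition of human SW756 cells, read out with a cell viability assay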
Assay: cells
Format: functional, cell-based
Details: Homo sapiens
Description: SANGER: Inhibition of human SW756 cell growth in a cell viability assay.

| Compound | IC50 |
| --- | --- |
| NC(=O)Nc1cc(-c2cccc(F)c2)sc1C(=O)N[C@H]1CCCNC1 [AZD-7762] | 0.0358 µM |

Test system: SiHa;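 further: Viability-based readout of growth inhibition in SiHa cells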
Assay: cells
Format: functional, cell-based
Details: Homo sapiens
Description: SANGER: Inhibition of human SiHa cell growth in a cell viability assay.

| Compound | IC50 |
| --- | --- |
| NC(=O)Nc1cc(-c2cccc(F)c2)sc1C(=O)N[C@H]1CCCNC1 [AZD-7762] | 0.859 µM |

Test system: 8505C
Assay: cells
Format: functional, cell-based
Details: Homo sapiens
Description: SANGER: Inhibition of human 8505C cell growth in a cell viability assay.

| Compound | IC50 |
| --- | --- |
| NC(=O)Nc1cc(-c2cccc(F)c2)sc1C(=O)N[C@H]1CCCNC1 [AZD-7762] | 0.35 µM |

Test system: A 172;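 further: growth inhibition of A172 cells, measured with a cell viability readout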
Assay: cells
Format: functional, cell-based
Details: Homo sapiens
Description: SANGER: Inhibition of human A172 cell growth in a cell viability assay.

| Compound | IC50 |
| --- | --- |
| NC(=O)Nc1cc(-c2cccc(F)c2)sc1C(=O)N[C@H]1CCCNC1 [AZD-7762] | 0.692 µM |

Test system: AGS;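 further: growth inhibition of AGS cells, determined with a cell viability assay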
Assay: cells
Format: functional, cell-based
Details: Homo sapiens
Description: SANGER: Inhibition of human AGS cell growth in a cell viability assay.

| Compound | IC50 |
| --- | --- |
| NC(=O)Nc1cc(-c2cccc(F)c2)sc1C(=O)N[C@H]1CCCNC1 [AZD-7762] | 0.582 µM |

Test system: AN3-CA;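 further: growth inhibition of human AN3-CA cells measured by a cell viability assay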
Assay: cells
Format: functional, cell-based
Details: Homo sapiens
Description: SANGER: Inhibition of human AN3-CA cell growth in a cell viability assay.

| Compound | IC50 |
| --- | --- |
| NC(=O)Nc1cc(-c2cccc(F)c2)sc1C(=O)N[C@H]1CCCNC1 [AZD-7762] | 0.837 µM |

Test system: BT-20;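 further: cell viability assay measuring suppression of growth in human BT-20 cells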
Assay: cells
Format: functional, cell-based
Details: Homo sapiens
Description: SANGER: Inhibition of human BT-20 cell growth in a cell viability assay.

| Compound | IC50 |
| --- | --- |
| NC(=O)Nc1cc(-c2cccc(F)c2)sc1C(=O)N[C@H]1CCCNC1 [AZD-7762] | 1.72 µM |

Test system: CAL-12T;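 further: growth inhibition of human CAL-12T cells, read out with a cell viability assay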
Assay: cells
Format: functional, cell-based
Details: Homo sapiens
Description: SANGER: Inhibition of human CAL-12T cell growth in a cell viability assay.

| Compound | IC50 |
| --- | --- |
| NC(=O)Nc1cc(-c2cccc(F)c2)sc1C(=O)N[C@H]1CCCNC1 [AZD-7762] | 0.433 µM |

Test system: U-118-MG
Assay: cells
Format: functional, cell-based
Details: Homo sapiens
Description: SANGER: Inhibition of human U-118-MG cell growth in a cell viability assay.

| Compound | IC50 |
| --- | --- |
| NC(=O)Nc1cc(-c2cccc(F)c2)sc1C(=O)N[C@H]1CCCNC1 [AZD-7762] | > 2 µM |

Test system: YAPC;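 further: growth inhibition of YAPC cells, measured with a cell viability assay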
Assay: cells
Format: functional, cell-based
Details: Homo sapiens
Description: SANGER: Inhibition of human YAPC cell growth in a cell viability assay.

| Compound | IC50 |
| --- | --- |
| NC(=O)Nc1cc(-c2cccc(F)c2)sc1C(=O)N[C@H]1CCCNC1 [AZD-7762] | > 2 µM |

Test system: COLO-678
Assay: cells
Format: functional, cell-based
Details: Homo sapiens
Description: SANGER: Inhibition of human COLO-678 cell growth in a cell viability assay.

| Compound | IC50 |
| --- | --- |
| NC(=O)Nc1cc(-c2cccc(F)c2)sc1C(=O)N[C@H]1CCCNC1 [AZD-7762] | > 2 µM |

Test system: COLO-679
Assay: cells
Format: functional, cell-based
Details: Homo sapiens
Description: SANGER: Inhibition of human COLO-679 cell growth in a cell viability assay.

| Compound | IC50 |
| --- | --- |
| NC(=O)Nc1cc(-c2cccc(F)c2)sc1C(=O)N[C@H]1CCCNC1 [AZD-7762] | 0.0909 µM |

Test system: COLO-680N;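 further: cell viability assay used to measure inhibition of COLO-680N cell growth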
Assay: cells
Format: functional, cell-based
Details: Homo sapiens
Description: SANGER: Inhibition of human COLO-680N cell growth in a cell viability assay.

| Compound | IC50 |
| --- | --- |
| NC(=O)Nc1cc(-c2cccc(F)c2)sc1C(=O)N[C@H]1CCCNC1 [AZD-7762] | > 2 µM |
